Test results as given in the NIST ThermoML archive (doi:10.1021/acs.jced.6b00178).
Where “and” joins values, the source holds several entries; their conditions need not be identical. Equal values may be shown once.

Experiments:
[1] = 100 kPa, Liquid; for viscosity: Concentric cylinders viscometry; for mass density: Vibrating tube method
[2] = xn = mol fraction of the nth substance listed; settings: 100 kPa, Liquid; for viscosity: Concentric cylinders viscometry; for mass density: Vibrating tube method

CCCC[n+]1ccn(C)c1.O=S(=O)([N-]S(=O)(=O)C(F)(F)F)C(F)(F)F
[1]
Settings | mass density | viscosity
283.15 K | 1451.8 kg/m3 | 106.78 mPa·s and 106.77 mPa·s
288.15 K | 1446.9 kg/m3 | 82.14 mPa·s and 82.16 mPa·s
293.15 K | 1442.1 kg/m3 | 66.36 mPa·s and 64.53 mPa·s
298.15 K | 1437.2 kg/m3 | 51.58 mPa·s and 51.6 mPa·s
303.15 K | 1432.4 kg/m3 | 41.94 mPa·s and 41.93 mPa·s
308.15 K | 1427.6 kg/m3 | 34.6 mPa·s and 34.59 mPa·s
313.15 K | 1422.8 kg/m3 and 1422.9 kg/m3 | 29.48 mPa·s and 28.91 mPa·s
318.15 K | 1418.1 kg/m3 and 1418.2 kg/m3 | 24.47 mPa·s and 24.46 mPa·s
323.15 K | 1413.4 kg/m3 and 1413.5 kg/m3 | 20.93 mPa·s and 20.91 mPa·s
328.15 K | 1408.7 kg/m3 and 1408.8 kg/m3 | 18.07 mPa·s and 18.05 mPa·s
333.15 K | 1404.1 kg/m3 and 1404 kg/m3 | 15.95 mPa·s and 15.72 mPa·s
338.15 K | 1399.4 kg/m3 and 1399.3 kg/m3 | 13.83 mPa·s and 13.8 mPa·s
343.15 K | 1394.8 kg/m3 and 1394.7 kg/m3 | 12.23 mPa·s and 12.2 mPa·s
348.15 K | 1390.2 kg/m3 and 1390.1 kg/m3 | 10.9 mPa·s and 10.86 mPa·s
353.15 K | 1385.6 kg/m3 and 1385.5 kg/m3 | 9.985 mPa·s and 9.72 mPa·s
358.15 K | 1381.1 kg/m3 and 1381 kg/m3 | 8.806 mPa·s and 8.754 mPa·s
363.15 K | 1376.6 kg/m3 and 1376.4 kg/m3 | 7.98 mPa·s and 7.926 mPa·s

CCCC[n+]1ccn(C)c1.O=S(=O)([N-]S(=O)(=O)C(F)(F)F)C(F)(F)F + CC(=O)[O-].CCCCn1cc[n+](C)c1
[2], x1 = 1
Settings | mass density [kg/m3] | viscosity [mPa·s]
283.15 K | 1451.8 | 106.78
288.15 K | 1446.9 | 82.14
293.15 K | 1442.1 | 66.36
298.15 K | 1437.2 | 51.58
303.15 K | 1432.4 | 41.94
308.15 K | 1427.6 | 34.6
313.15 K | 1422.9 | 29.48
318.15 K | 1418.2 | 24.47
323.15 K | 1413.5 | 20.93
328.15 K | 1408.8 | 18.07
333.15 K | 1404.1 | 15.95
338.15 K | 1399.4 | 13.83
343.15 K | 1394.8 | 12.23
348.15 K | 1390.2 | 10.9
353.15 K | 1385.6 | 9.985
358.15 K | 1381.1 | 8.806
363.15 K | 1376.6 | 7.98

CCCC[n+]1ccn(C)c1.O=S(=O)([N-]S(=O)(=O)C(F)(F)F)C(F)(F)F + CCCCn1cc[n+](C)c1.COP(=O)([O-])OC
[2], x1 = 1
Settings | mass density [kg/m3] | viscosity [mPa·s]
283.15 K | 1451.8 | 106.78
288.15 K | 1446.9 | 82.14
293.15 K | 1442.1 | 66.36
298.15 K | 1437.2 | 51.58
303.15 K | 1432.4 | 41.94
308.15 K | 1427.6 | 34.6
313.15 K | 1422.9 | 29.48
318.15 K | 1418.2 | 24.47
323.15 K | 1413.5 | 20.93
328.15 K | 1408.8 | 18.07
333.15 K | 1404.1 | 15.95
338.15 K | 1399.4 | 13.83
343.15 K | 1394.8 | 12.23
348.15 K | 1390.2 | 10.9
353.15 K | 1385.6 | 9.985
358.15 K | 1381.1 | 8.806
363.15 K | 1376.6 | 7.98

CCCC[n+]1ccn(C)c1.O=S(=O)([N-]S(=O)(=O)C(F)(F)F)C(F)(F)F + CCCCn1cc[n+](C)c1.F[P-](F)(F)(F)(F)F
[2], x1 = 1
Settings | mass density [kg/m3] | viscosity [mPa·s]
283.15 K | 1451.8 | 106.77
288.15 K | 1446.9 | 82.16
293.15 K | 1442.1 | 64.53
298.15 K | 1437.2 | 51.6
303.15 K | 1432.4 | 41.93
308.15 K | 1427.6 | 34.59
313.15 K | 1422.8 | 28.91
318.15 K | 1418.1 | 24.46
323.15 K | 1413.4 | 20.91
328.15 K | 1408.7 | 18.05
333.15 K | 1404 | 15.72
338.15 K | 1399.3 | 13.8
343.15 K | 1394.7 | 12.2
348.15 K | 1390.1 | 10.86
353.15 K | 1385.5 | 9.72
358.15 K | 1381 | 8.754
363.15 K | 1376.4 | 7.926

CCCC[n+]1ccn(C)c1.O=S(=O)([N-]S(=O)(=O)C(F)(F)F)C(F)(F)F + CCCCn1cc[n+](C)c1.N#CN=C=[N-]
[2], x1 = 1
Settings | mass density [kg/m3] | viscosity [mPa·s]
283.15 K | 1451.8 | 106.77
288.15 K | 1446.9 | 82.16
293.15 K | 1442.1 | 64.53
298.15 K | 1437.2 | 51.6
303.15 K | 1432.4 | 41.93
308.15 K | 1427.6 | 34.59
313.15 K | 1422.8 | 28.91
318.15 K | 1418.1 | 24.46
323.15 K | 1413.4 | 20.91
328.15 K | 1408.7 | 18.05
333.15 K | 1404 | 15.72
338.15 K | 1399.3 | 13.8
343.15 K | 1394.7 | 12.2
348.15 K | 1390.1 | 10.86
353.15 K | 1385.5 | 9.72
358.15 K | 1381 | 8.754
363.15 K | 1376.4 | 7.926

CCCC[n+]1ccn(C)c1.O=S(=O)([N-]S(=O)(=O)C(F)(F)F)C(F)(F)F + CCCCn1cc[n+](C)c1.N#C[S-]
[2], x1 = 1
Settings | mass density [kg/m3] | viscosity [mPa·s]
283.15 K | 1451.8 | 106.78
288.15 K | 1446.9 | 82.14
293.15 K | 1442.1 | 66.36
298.15 K | 1437.2 | 51.58
303.15 K | 1432.4 | 41.94
308.15 K | 1427.6 | 34.6
313.15 K | 1422.9 | 29.48
318.15 K | 1418.2 | 24.47
323.15 K | 1413.5 | 20.93
328.15 K | 1408.8 | 18.07
333.15 K | 1404.1 | 15.95
338.15 K | 1399.4 | 13.83
343.15 K | 1394.8 | 12.23
348.15 K | 1390.2 | 10.9
353.15 K | 1385.6 | 9.985
358.15 K | 1381.1 | 8.806
363.15 K | 1376.6 | 7.98

CCCC[n+]1ccn(C)c1.O=S(=O)([N-]S(=O)(=O)C(F)(F)F)C(F)(F)F + CCCCn1cc[n+](C)c1.O=S(=O)([O-])C(F)(F)F
[2], x1 = 1
Settings | mass density [kg/m3] | viscosity [mPa·s]
283.15 K | 1451.8 | 106.78
288.15 K | 1446.9 | 82.14
293.15 K | 1442.1 | 66.36
298.15 K | 1437.2 | 51.58
303.15 K | 1432.4 | 41.94
308.15 K | 1427.6 | 34.6
313.15 K | 1422.9 | 29.48
318.15 K | 1418.2 | 24.47
323.15 K | 1413.5 | 20.93
328.15 K | 1408.8 | 18.07
333.15 K | 1404.1 | 15.95
338.15 K | 1399.4 | 13.83
343.15 K | 1394.8 | 12.23
348.15 K | 1390.2 | 10.9
353.15 K | 1385.6 | 9.985
358.15 K | 1381.1 | 8.806
363.15 K | 1376.6 | 7.98

CCCCn1cc[n+](C)c1.COP(=O)([O-])OC [1-butyl-3-methyl-1H-imidazolium dimethylphosphate]
[1]
Settings | mass density [kg/m3] | viscosity [mPa·s]
283.15 K | 1168.4 | 2315.6
288.15 K | 1164.9 | 1454.6
293.15 K | 1161.4 | 943.97
298.15 K | 1157.9 | 641.71
303.15 K | 1154.3 | 446.92
308.15 K | 1150.9 | 319.33
313.15 K | 1147.6 | 232.1
318.15 K | 1144.3 | 174.7
323.15 K | 1141 | 133.37
328.15 K | 1137.8 | 103.62
333.15 K | 1134.6 | 81.97
338.15 K | 1131.4 | 65.62
343.15 K | 1128.3 | 53.39
348.15 K | 1125.1 | 44.01
353.15 K | 1122 | 37.08
358.15 K | 1118.9 | 30.94
363.15 K | 1115.7 | 26.33

CC(=O)[O-].CCCCn1cc[n+](C)c1 [1-butyl-3-methylimidazolium acetate]
[1]
Settings | mass density [kg/m3] | viscosity [mPa·s]
283.15 K | 1062.7 | 1013.4
288.15 K | 1059.4 | 645.6
293.15 K | 1056 | 421.35
298.15 K | 1052.8 | 292.57
303.15 K | 1049.7 | 206.68
308.15 K | 1046.6 | 150.08
313.15 K | 1043.5 | 110.79
318.15 K | 1040.5 | 85.03
323.15 K | 1037.5 | 66.07
328.15 K | 1034.5 | 52.29
333.15 K | 1031.5 | 42.29
338.15 K | 1028.5 | 34.38
343.15 K | 1025.6 | 28.48
348.15 K | 1022.6 | 23.88
353.15 K | 1019.7 | 20.63
358.15 K | 1016.7 | 17.35
363.15 K | 1013.9 | 15

CCCCn1cc[n+](C)c1.N#CN=C=[N-] [1-butyl-3-methylimidazolium dicyanamide]
[1]
Settings | mass density [kg/m3] | viscosity [mPa·s]
283.15 K | 1070 | 58.35
288.15 K | 1066.7 | 45.91
293.15 K | 1063.4 | 36.83
298.15 K | 1060.2 | 30.08
303.15 K | 1057 | 24.94
308.15 K | 1053.8 | 20.98
313.15 K | 1050.6 | 17.86
318.15 K | 1047.5 | 15.38
323.15 K | 1044.4 | 13.38
328.15 K | 1041.3 | 11.74
333.15 K | 1038.2 | 10.38
338.15 K | 1035.2 | 9.251
343.15 K | 1032.1 | 8.298
348.15 K | 1029.1 | 7.488
353.15 K | 1026.1 | 6.794
358.15 K | 1023.2 | 6.196
363.15 K | 1020.3 | 5.677

CCCCn1cc[n+](C)c1.F[B-](F)(F)F [1-butyl-3-methylimidazolium tetrafluoroborate] + CCCC[n+]1ccn(C)c1.O=S(=O)([N-]S(=O)(=O)C(F)(F)F)C(F)(F)F
[2], x2 = 0
Settings | mass density [kg/m3] | viscosity [mPa·s]
283.15 K | 1212.5 | 264.99
288.15 K | 1208.8 | 192.43
293.15 K | 1205.2 | 143.08
298.15 K | 1201.6 | 108.74
303.15 K | 1198 | 84.28
308.15 K | 1194.5 | 66.52
313.15 K | 1190.9 | 53.37
318.15 K | 1187.4 | 43.47
323.15 K | 1184 | 35.89
328.15 K | 1180.5 | 30.01
333.15 K | 1177 | 25.38
338.15 K | 1173.6 | 21.68
343.15 K | 1170.2 | 18.7
348.15 K | 1166.8 | 16.26
353.15 K | 1163.4 | 14.26
358.15 K | 1160.1 | 12.59
363.15 K | 1156.8 | 11.2
